According to US12447159B2 (AELIS FARMA, priority 2018, dated 2025):
Marks after values point to notes of the source that are not given here. Each block holds one compound with its values, some of them ahead of it.

Legend:
[1] = at doses quite close to the therapeutic dose; cited from earlier work
[2] = system: anxiety- and depression-related behaviors in mice; assay: Repeated administration: anxiety- and depression-related behaviors (elevated plus maze, sucrose preference test); format: in vivo; details: for Increase in anxiety and depression related behaviors (repeated administration): Effect (Rimonabant): 28 days, 10 mg/kg
Description: The EPM apparatus was made of four elevated arms arranged in a cross-like disposition, with two opposite arms being enclosed by walls and the two other arms being open. For all the experiments, after receiving the appropriate treatment mice were placed in the center of the EPM and let free to explore the maze for 5 minutes. The time spent and the number of entries into the open arms and closed arms were measured by an automatic videotracking system. A decrease in the percentages of visits and/or of the time spent in open arms is considered an index of increase in anxiety levels.
The sucrose preference test was performed in the home cage of the mice. Two identical bottles, one containing water and the other one containing a 2%-sucrose solution were placed in the hopper of each home cage. […] The volumes of water and of sucrose solutions drank by the mice were measured over two 1.30 h intervals, the first between 7.00 pm and 8.30 pm and the second between 8.30 pm and 10.00 pm. At each time point, the bottles were weighed and the intake volume was calculated by subtracting the initial bottle weight to the final bottle weight.
At day 26, mice were subjected to the EPM and at day 28 to the sucrose preference test.

[3] = system: diet-induced obese (DIO) mouse model; assay: Repeated treatment: food intake and body weight in diet-induced obese (DIO) mice; format: in vivo; details: vs vehicle; Rimo 10 mg/kg ip; 3pMBP 0.005-15 mg/kg per os
corticosterone = details: from Steiner et al., 2008, cited from earlier work
THC dependent mice = assay: Precipitated withdrawal in mice chronically treated with THC; format: in vivo; details: mouse, in vivo
Description: The chronic THC regimen (20 mg/kg, twice a day) used in these experiments has been chosen because it mimics heavy marijuana use (Cook et al., 1998) and is considered as a model of cannabinoids dependence in mice (Cutando et al., 2013; Hutcheson et al., 1998). […] From day 1 to 4-5, mice were injected ip with vehicle or THC (20 mg/kg in NaCl 0.9% containing 2% ethanol and 2% Tween80, 10 ml/kg) twice a day. […] All the other animals received the administration of the respective vehicle. […] The dose and schedule of administration of rimonabant chosen for this study has been commonly used to precipitate THC withdrawal in mice (Cook et al. 1998, Hutcheson et al., 1998, Huang et al., 2009).
For the measure of precipitated withdrawal, mice were placed in a novel home cage and a video camera positioned in front of each cage recorded animals' behaviors. Scoring was performed for 1 minute every 5 min-period. Two withdrawal signs were analyzed: paw tremors and head shaking, since they are the most common signs of THC withdrawal observed in mice (Cook et al. 1998, Hutcheson et al., 1998, Lichtman et al., 2001).

[4] = system: diet-induced obese (DIO) mouse model; assay: Repeated treatment: food intake and body weight in diet-induced obese (DIO) mice; format: in vivo; details: for Inhibition of food-intake and body weight (repeated administration): Effect (Rimonabant): 10 mg/kg
Description: Male C57BL/6J mice were fed ad libitum with a high-fat diet (HFD) for 8 weeks before the start of the pharmacological treatments. During pharmacological treatments, the HFD was maintained and food intake and body weight were measured daily. The food consumed was calculated by subtracting the food left in the hoppers from the initial pre-weighted amount. […] 3pMBP and rimonabant were administered by oral gavage once a day, two hours before the start of the dark phase of the light/dark cycle.

[5] = Metabolic profiling of [3H]-3pMBP in plasma and excreta in the rat (Radio-HPLC); details: in vivo
Description: The metabolic profile was evaluated in plasma, in urines and feces and the radio-labelled metabolites were identified by their retention time using Radio-HPLC analysis. The results are expressed as % of the sum of all the detected peak areas.

progesterone receptor = biological target: T1, progesterone receptor (Homo sapiens, UniProt P06401); assay: Binding selectivity, ligand displacement; details: 10 μM
T1 construct: CEREP
Excerpt: (§1) The CEREP High-throughput profile consists of a broad collection of 80 transmembrane and soluble receptors, ion channels and G-Protein coupled receptors.

[6] = biological target: T2, peripheral benzodiazepine receptor (Rattus norvegicus, UniProt P16257); assay: Binding selectivity, ligand displacement; details: 10 μM
T2 construct: CEREP
Excerpt: as §1

[7] = system: central benzodiazepine receptor; assay: Binding selectivity, ligand displacement; details: 10 μM
Excerpt: as §1

[8] = 28 days once a day, 3pMBP 0.05, 5, 15 mg/kg per os, Rimo 10 mg/kg ip
[9] = male mice, listed as rimonabant
[10] = vs reference ID100 for rimonabant effects = 10 mg/kg

T1 sequence (P06401 whole entry): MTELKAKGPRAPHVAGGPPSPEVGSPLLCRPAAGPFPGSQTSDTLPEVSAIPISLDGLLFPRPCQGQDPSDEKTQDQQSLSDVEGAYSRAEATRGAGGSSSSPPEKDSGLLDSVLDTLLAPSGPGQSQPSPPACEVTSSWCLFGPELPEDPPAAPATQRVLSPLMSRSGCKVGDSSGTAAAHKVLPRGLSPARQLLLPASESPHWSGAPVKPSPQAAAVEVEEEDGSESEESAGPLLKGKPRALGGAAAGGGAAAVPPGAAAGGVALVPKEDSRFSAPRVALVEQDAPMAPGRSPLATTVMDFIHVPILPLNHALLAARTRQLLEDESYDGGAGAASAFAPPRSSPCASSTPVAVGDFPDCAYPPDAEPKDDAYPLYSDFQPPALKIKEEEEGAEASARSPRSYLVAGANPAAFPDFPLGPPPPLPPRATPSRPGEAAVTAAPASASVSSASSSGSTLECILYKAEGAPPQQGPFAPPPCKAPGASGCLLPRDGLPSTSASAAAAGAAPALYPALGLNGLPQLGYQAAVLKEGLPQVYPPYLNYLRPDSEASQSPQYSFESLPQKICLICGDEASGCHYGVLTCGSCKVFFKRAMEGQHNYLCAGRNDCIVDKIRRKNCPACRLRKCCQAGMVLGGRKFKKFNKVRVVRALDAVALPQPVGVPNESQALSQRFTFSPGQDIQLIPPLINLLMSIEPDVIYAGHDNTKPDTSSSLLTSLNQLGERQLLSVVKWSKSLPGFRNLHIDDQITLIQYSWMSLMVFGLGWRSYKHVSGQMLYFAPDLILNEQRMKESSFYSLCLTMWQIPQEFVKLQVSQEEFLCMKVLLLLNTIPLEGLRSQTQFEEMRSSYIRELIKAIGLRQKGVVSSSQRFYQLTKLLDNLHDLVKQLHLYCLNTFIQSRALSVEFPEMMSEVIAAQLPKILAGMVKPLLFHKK

- Percentage of time spent in the open arms of the elevated plus maze [2, 8]: decreases the time spent in open arms
- Sucrose intake (sucrose preference test) [2, 8]: decreases sucrose intake
- IC100 ([2]; Rimonabant, male mice): 10 mg/kg
- Increase in anxiety and depression related behaviors (repeated administration): Effect (Rimonabant) ([2]; male mice): Yes
- N fold IC100 [2, 10]: 1
- IC100 (THC dependent mice): 10 mg/kg
Structure (SMILES): Cc1c(C(=O)NN2CCCCC2)nn(-c2ccc(Cl)cc2Cl)c1-c1ccc(Cl)cc1 [Rimonabant, rimonabant]
- Adverse events in GLP safety and toxicity studies [1]: clonic convulsion, hepatotoxicity and several profound alterations in behavior
- Percentage of visits in the open arms of the elevated plus maze [2, 8]: decreases the percentage of visits in open arms
- Increase in anxiety and depression related behaviors (repeated administration): Effect (Rimonabant) [2, 9]: increased anxiety and depression-related behavior
- Body weight in obese mice [3]: decreases body weight
- IC100 (corticosterone; Rimonabant): 2 mg/kg
- Increase in glucocorticoid secretion: Effect (Rimonabant) (corticosterone; mice): Yes
- N fold IC100 (corticosterone; vs reference ID100 for rimonabant = 10 mg/kg): 0.2^#
- IC100 ([4]; Rimonabant, male mice): 10 mg/kg
- Inhibition of food-intake and body weight (repeated administration): Effect (Rimonabant) ([4]; male mice): Yes
- Inhibition of food-intake and body weight (repeated administration): Effect (Rimonabant) [4, 9]: decreased both food intake and body weight
- N fold IC100 [4, 10]: 1
- Food intake in obese mice ([4]; vs vehicle, Rimo 10 mg/kg ip, 3pMBP 0.005-15 mg/kg per os): decreases food intake

Structure (SMILES): COc1ccc(CO[C@H]2CC[C@@]3(C)C(=CC[C@H]4[C@@H]5CC[C@H](C(C)=O)[C@@]5(C)CC[C@@H]43)C2)cc1 [[^3H]-3pMBP]
- Major metabolites in plasma [5]: does not produce any major metabolites in plasma

- displacement of binding (progesterone receptor): > 80%
- displacement of binding [6]: > 40%
- displacement of binding [7]: > 40%
Structure (SMILES): CC(=O)[C@H]1CC[C@H]2[C@@H]3CC=C4C[C@@H](O)CC[C@]4(C)[C@H]3CC[C@]12C [pregnenolone]
